From the CATMoS acute toxicity set (Mansouri et al. 2021)

Experiments:
rat acute oral toxicity = conditions: in vivo
From the text: […]The data set underlying the modeling effort for this project was initially compiled by NICEATM and U.S. EPA’s CCTE. Briefly, LD50 data were collected from rat acute oral systemic toxicity tests, including limit tests, ranges/confidence intervals, and discrete LD50 values. The full data set included 21,200 LD50 entries for 15,688 substances. […] Data were reviewed to ensure that LD50 values with obvious errors in the extracted data such as unit conversion errors (e.g., comma and decimal separator misplacements) were either fixed or removed. After this review, 16,209 LD50 values remained. Many of the chemicals represented had multiple LD50 entries, requiring that a single representative value per Chemical Abstracts Service Registry Number (CASRN) identifier be defined to facilitate modeling efforts. Based on ATWG feedback and to define the representative LD50 as a protective value while accounting for the distribution across multiple LD50s, the median of the lowest quartile was computed using only discrete LD50 values (omitting limit test data and range and confidence interval data). A detailed summary of the data compilation is available online on the NICEATM webpage dedicated to the collaborative modeling project (NTP 2020).
[…][…] For categorical designations, limit test and range/confidence interval LD50 data were integrated wherever possible. As such, the number of chemicals with end point values/calls varies across the modeling end points (Table 3) based on whether chemicals had representative LD50 values and/or other data. If a chemical had both, the representative value was used to determine categorical calls rather than limit test data. Some data were useable only for certain end points and categories depending on the thresholds. For example, ranges that spanned multiple hazard categories were considered only for the binary (very toxic/nontoxic) end points and omitted from rendering a determination for hazard category assignment.
[…]The final data set comprising 11,992 chemicals was split into training and evaluation sets […], respectively. This process was performed semirandomly by ordering chemicals based on the five end points (categorical and continuous LD50 values) and partitioning every fourth record into the evaluation set accordingly. This approach was taken to ensure an equivalent distribution of the LD50 values and the different hazard categories between the training and the evaluation sets without supervised sampling of the chemicals based on structures (Figure 1A). The sources of the chemical structures were also kept equivalent between the two sets, with chemical structures obtained from DSSTox, being the highest quality, representing over 75% of each set (Figure 1B).

[1] = GHS categories as the set defines them, by LD50: 1 up to 5, 2 up to 50, 3 up to 300, 4 up to 2000, 5 above 2000 mg/kg; conditions: rat; in vivo; po

| SMILES | LD50 (rat acute oral toxicity) | GHS category [1] |
| --- | --- | --- |
| NC1CCCCC1N (configuration not stated) | 1170 mg/kg |  |
| CC(=O)C1=C(C)[C@@H]2C[C@@]3(C1)[C@H](C)CC[C@H]3C2(C)C | 4500 mg/kg |  |
| COC(=O)N(C(=O)N1CO[C@@]2(C(=O)OC)Cc3cc(Cl)ccc3C2=N1)c1ccc(OC(F)(F)F)cc1 | 268 mg/kg |  |
| O=C(O)c1ccc2cc(O)ccc2c1 | 947 mg/kg |  |
| CCCCCc1cc(O)c2c(c1)OC(C)(C)[C@@H]1CCC(C)=C[C@@H]21 | 666 mg/kg |  |
| C1CO1 | 72 mg/kg |  |
| OCc1ccco1 | 177 mg/kg |  |
| O=Cc1ccc(-c2ccccc2)cc1 | 1000 mg/kg |  |
| Cc1ccc(NC(=O)N(C)C)cc1Cl | 5800 mg/kg |  |
| CC(=O)CC(=O)Nc1ccccc1Cl | 4040 mg/kg |  |
| CC[C@H]1OC(=O)[C@H](C)[C@@H](O[C@H]2C[C@@](C)(OC)[C@@H](O)[C@H](C)O2)[C@H](C)[C@@H](O[C@@H]2O[C@H](C)C[C@H](N(C)C)[C@H]2O)[C@](C)(O)C[C@@H](C)C(=O)[C@H](C)[C@@H](O)[C@]1(C)O | 4600 mg/kg |  |
| CCCCCCCCCCCCCCCCCC[N+](C)(C)CCCCCCCCCCCCCCCCCC | 11300 mg/kg |  |
| CCCCCCCCCCCCOS(=O)(=O)O | 977 mg/kg |  |
| NC(=O)/C(=C\c1ccc([N+](=O)[O-])o1)c1ccco1 | 340 mg/kg |  |
| O=C1C=CC(=O)O1 | 318 mg/kg |  |
| COc1ccc(C(=CC(=O)N2CCOCC2)c2ccc(Cl)cc2)cc1OC | 3900 mg/kg |  |
| CCCCC(CC)(CO)CO | 2800 mg/kg |  |
| O=C(O)c1ccc2c(c1)C(=O)OC2=O | 2030 mg/kg |  |
| CCOCn1c(-c2ccc(Cl)cc2)c(C#N)c(Br)c1C(F)(F)F | 560 mg/kg |  |
| CC1(C)[C@H]2[C@H](O)OC(=O)[C@H]21 | 200 mg/kg |  |
| CC1(C)[C@H](/C=C2\CCSC2=O)[C@@H]1C(=O)OCc1coc(Cc2ccccc2)c1 | 650 mg/kg |  |
| O=C(O)CBr | 50 mg/kg |  |
| CN(C)C(=O)C(c1ccccc1)c1ccccc1 | 685 mg/kg |  |
| CCN(CC)c1nc(Nc2ccc(/C=C/c3ccc(Nc4nc(Nc5cc(S(=O)(=O)O)ccc5S(=O)(=O)O)nc(N(CC)CC)n4)cc3S(=O)(=O)O)c(S(=O)(=O)O)c2)nc(Nc2cc(S(=O)(=O)O)ccc2S(=O)(=O)O)n1 | 11300 mg/kg |  |

| SMILES | LD50 (rat acute oral toxicity) | GHS category [1] |
| --- | --- | --- |
| CC(=O)OC(C)C | 3000 mg/kg |  |
| CNC(=O)Oc1cc(C)c(S(C)(=O)=O)c(C)c1 |  | 4 |
| CO[C@@]1(NC(=O)C2SC(=C(C(N)=O)C(=O)O)S2)C(=O)N2C(C(=O)O)=C(CSc3nnnn3C)CS[C@@H]21 (some centres not stated) |  | 5 |
| CC(C)Cc1ccc2cc(CC(=O)O)ccc2c1 |  | 4 |
| CCCCOC(=O)c1ccccc1N=Nc1c(O)c(C(=O)Nc2ccc3[nH]c(=O)[nH]c3c2)cc2ccccc12 |  | 5 |
| O=C1OC(=O)c2c(Cl)c(Cl)c(Cl)c(Cl)c21 |  | 5 |
| CCN(CC)CCNC(C(=O)OCCC(C)C)c1ccccc1 (configuration not stated) |  | 4 |
| Cn1c(=O)n(-c2ccccc2)c2cc(Cl)ccc21 |  | 4 |
| c1cnn(-c2cc(-n3cccn3)ncn2)c1 |  | 5 |
| CCCNC(=O)c1cnc2cc(C)ccn2c1=O |  | 3 |
| CCC(c1cccc(O)c1)C(CC)c1cccc(O)c1 (configuration not stated) |  | 5 |
| CNc1ccc(C(=O)c2ccccc2)cc1O |  | 5 |
| CC(C)Oc1ccc2c(=O)c(-c3ccccc3)coc2c1 |  | 5 |
| O=C1CCc2c(cccc2OCCCN2CCC(Cc3ccccc3)CC2)N1 |  | 4 |
| Cc1ccc(S(=O)(=O)NCCCCCC(=O)O)cc1 |  | 5 |
| N#CC(CCc1ccc(Cl)cc1)(Cn1cncn1)c1ccccc1 (configuration not stated) |  | 5 |
| COC(=O)CC(C(C)=O)C(=O)OC (configuration not stated) |  | 5 |
| O=C(Nc1ccccc1SSc1ccccc1NC(=O)c1ccccc1)c1ccccc1 |  | 5 |
| C=COC(=O)C1=C(C)N[C@@](C)(c2ccc(N3CCN(C(c4ccccc4)c4ccccc4)CC3)cc2)C(C(=O)OC)C1c1cccc([N+](=O)[O-])c1 (some centres not stated) |  | 4 |
| O=C[C@H](O[C@@H](C=O)[C@@H](O)[C@H](O)[C@H](O)CO)[C@@H](O)[C@H](O)[C@H](O)CO |  | 5 |
| Cc1cc(C)c(Nc2ccc(Nc3c(C)cc(C)cc3C)c3c2C(=O)c2ccccc2C3=O)c(C)c1 |  | 5 |
| CCCCCC(=O)[Si](C)(C)C |  | 5 |
| O=Cc1cc([N+](=O)[O-])ccc1Cl |  | 5 |
